Laboratory results reported in patent US20040254175A1, “Derivatives of phenoxy-n-'4-(isothiazolindin-1,1-dioxid-2yl)phenyl!-valerian-acid amide and other compounds as inhibitors of the coagulation factor xa in the treatment of thromboembolic diseases and tumors” (priority 2001, published 2004).
Counter-ions that a name gives are not always drawn.

Legend:
FXa = FXa (Homo sapiens, UniProt P00742); assay: Inhibition of factor Xa (FXa-IC50)
TF/FVIIa = TF/FVIIa (Homo sapiens, UniProt P08709); assay: Inhibition of TF/factor VIIa (TF/FVIIa-IC50)
Chain of TF/FVIIa (P08709 213-466 limits assumed): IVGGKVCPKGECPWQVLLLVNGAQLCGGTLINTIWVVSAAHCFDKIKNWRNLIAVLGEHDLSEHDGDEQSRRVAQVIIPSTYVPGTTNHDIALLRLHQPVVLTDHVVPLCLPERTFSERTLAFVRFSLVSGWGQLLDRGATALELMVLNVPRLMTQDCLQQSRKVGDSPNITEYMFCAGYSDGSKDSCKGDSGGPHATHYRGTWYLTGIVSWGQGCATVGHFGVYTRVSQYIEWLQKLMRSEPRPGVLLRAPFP
Chain of TF/FVIIa (P08709 61-212 partner limits assumed): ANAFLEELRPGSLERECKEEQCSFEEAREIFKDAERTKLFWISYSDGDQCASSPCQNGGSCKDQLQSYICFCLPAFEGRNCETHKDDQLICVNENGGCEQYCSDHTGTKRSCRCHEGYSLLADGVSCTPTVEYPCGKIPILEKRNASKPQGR
Chain of TF/FVIIa (P13726 33-295 partner): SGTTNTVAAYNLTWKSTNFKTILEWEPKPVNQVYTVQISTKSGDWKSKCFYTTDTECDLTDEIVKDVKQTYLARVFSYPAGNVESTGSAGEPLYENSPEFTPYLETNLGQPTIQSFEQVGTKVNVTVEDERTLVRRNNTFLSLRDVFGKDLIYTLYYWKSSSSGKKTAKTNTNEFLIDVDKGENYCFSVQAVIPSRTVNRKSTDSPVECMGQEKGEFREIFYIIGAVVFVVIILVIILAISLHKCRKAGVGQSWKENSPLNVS

Chain of FXa (P00742 235-488 limits assumed): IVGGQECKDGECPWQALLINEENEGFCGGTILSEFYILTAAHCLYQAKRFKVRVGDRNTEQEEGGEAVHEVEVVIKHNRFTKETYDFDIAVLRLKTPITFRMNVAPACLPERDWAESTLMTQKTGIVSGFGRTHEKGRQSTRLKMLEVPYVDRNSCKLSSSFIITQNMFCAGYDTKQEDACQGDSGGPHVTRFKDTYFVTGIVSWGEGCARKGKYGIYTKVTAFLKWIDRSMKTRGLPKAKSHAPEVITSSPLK
Chain of FXa (P00742 41-179 partner limits assumed): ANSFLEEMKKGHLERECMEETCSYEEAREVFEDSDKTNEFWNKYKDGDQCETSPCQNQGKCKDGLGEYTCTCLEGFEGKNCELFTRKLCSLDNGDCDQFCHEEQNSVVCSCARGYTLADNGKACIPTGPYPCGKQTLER

IC50 (FXa) [nM] | IC50 (TF/FVIIa) [nM] | Compound
350 | 450 | CCCC(Oc1cccc(C(=N)N)c1)C(=O)Nc1ccc(N2CCCS2(=O)=O)cc1 (stereo not shown) [AA, 2-(3-amidinophenoxy)-N-[4-(1,1-dioxoisothiazolidin-2-yl)phenyl]valeramide, acetate]
490 | 870 | Cc1cc(NC(=O)C(Nc2cccc(CN)c2)c2ccccc2)ccc1N1CCCS1(=O)=O (stereo not shown) [BB, 2-(3-aminomethylphenylamino)-N-[4-(1,1-dioxoisothiazolidin-2-yl)-3-methylphenyl]-2-phenylacetamide, hydrochloride]
